# In paper PMC7216583 (Parasites & Vectors, 2020):
# pEC50, pIC50, pKi: −log10 of the molar value. Where two headings read alike, the source gives them in different places.
# Experiments:
# FGFR1 = conditions: read-out: IC50, FGFR1; vendor brief description; ref S-inhibitor catalog; cited from earlier work
# Mer = tested on: Mer; parameters: method as in S-inhibitor catalog; conditions: vendor brief description; ref S-inhibitor catalog; cited from earlier work
# Flt3 = tested on: Flt3; parameters: method as in S-inhibitor catalog; conditions: vendor brief description; ref S-inhibitor catalog; cited from earlier work
# in vitro = conditions: human, Host viability (%) mean
# FGFR3 = tested on: FGFR3; parameters: method as in S-inhibitor catalog; conditions: vendor brief description; ref S-inhibitor catalog; cited from earlier work
# FGFR2 = tested on: FGFR2; parameters: method as in S-inhibitor catalog; conditions: vendor brief description; ref S-inhibitor catalog; cited from earlier work
# PDGFRβ = tested on: PDGFRβ; parameters: method as in S-inhibitor catalog; conditions: vendor brief description; ref S-inhibitor catalog; cited from earlier work
# Flt1 = tested on: Flt1; parameters: method as in S-inhibitor catalog; conditions: vendor brief description; ref S-inhibitor catalog; cited from earlier work
# c-Met = tested on: c-Met; parameters: method as in S-inhibitor catalog; conditions: vendor brief description; ref S-inhibitor catalog; cited from earlier work
# Ron = tested on: Ron; parameters: method as in S-inhibitor catalog; conditions: vendor brief description; ref S-inhibitor catalog; cited from earlier work
# [1] = tested on: Toxoplasma gondii RH-2F tachyzoites; test: microbe, parasite or virus in culture; conditions: 72 h
# JAK2 = tested on: JAK2; parameters: method as in S-inhibitor catalog; conditions: in HEL cells; vendor brief description; ref S-inhibitor catalog; cited from earlier work
# Stat3 = tested on: Stat3; parameters: method as in S-inhibitor catalog; conditions: in HEL cells; vendor brief description; ref S-inhibitor catalog; cited from earlier work
# mutant CETP(C13S) = tested on: mutant CETP(C13S); parameters: method as in S-inhibitor catalog; conditions: vendor brief description; ref S-inhibitor catalog; cited from earlier work
# GSK3 = tested on: GSK3; parameters: method as in vendor brief description; conditions: ref vendor brief description; cited from earlier work
# mGlu5 = tested on: mGlu5; parameters: method as in S-inhibitor catalog; conditions: vendor brief description; ref S-inhibitor catalog; read-out: EC50, mGlu5 allosteric modulator; cited from earlier work
# NAMPT = conditions: read-out: IC50, NAMPT; vendor brief description; ref S-inhibitor catalog; cited from earlier work
# CHO-hSGLT2 = tested on: CHO-hSGLT2; parameters: method as in S-inhibitor catalog; conditions: vendor brief description; ref S-inhibitor catalog; cited from earlier work
# CHO-mSGLT2 = tested on: CHO-mSGLT2; parameters: method as in S-inhibitor catalog; conditions: vendor brief description; ref S-inhibitor catalog; cited from earlier work
# CHO-rSGLT2 = tested on: CHO-rSGLT2; parameters: method as in S-inhibitor catalog; conditions: vendor brief description; ref S-inhibitor catalog; cited from earlier work
# INR263K = tested on: INR263K; parameters: method as in S-inhibitor catalog; conditions: vendor brief description; ref S-inhibitor catalog; cited from earlier work
# integrase (IN) = molecular target: integrase (IN); parameters: method as in S-inhibitor catalog; conditions: vendor brief description; ref S-inhibitor catalog; cited from earlier work
# DNA methyltransferase = molecular target: DNA methyltransferase; parameters: method as in vendor brief description; conditions: ref vendor brief description; cited from earlier work
# PI3K/mTOR = tested on: PI3K/mTOR; parameters: method as in S-inhibitor catalog; conditions: vendor brief description; ref S-inhibitor catalog; read-out: IC50, dual PI3K/mTOR inhibitor; cited from earlier work
# PKCγ = tested on: PKCγ; parameters: method as in library vendor description; conditions: ref library vendor description; cited from earlier work
# PKCα = tested on: PKCα; parameters: method as in library vendor description; conditions: ref library vendor description; cited from earlier work
# PKCε = tested on: PKCε; parameters: method as in library vendor description; conditions: ref library vendor description; cited from earlier work
# PKCβ = tested on: PKCβ; parameters: method as in library vendor description; conditions: ref library vendor description; cited from earlier work
# Akt1 = tested on: Akt1; parameters: method as in vendor brief description; conditions: ref vendor brief description; cited from earlier work
# Akt3 = tested on: Akt3; parameters: method as in vendor brief description; conditions: ref vendor brief description; cited from earlier work
# NaV1.8 channel = tested on: NaV1.8 channel; parameters: method as in S-inhibitor catalog; conditions: vendor brief description; ref S-inhibitor catalog; cited from earlier work
# cyclin A/CDK2 = tested on: cyclin A/CDK2; parameters: method as in S-inhibitor catalog; conditions: vendor brief description; ref S-inhibitor catalog; cited from earlier work
# rhCETP = tested on: rhCETP; parameters: method as in S-inhibitor catalog; conditions: vendor brief description; ref S-inhibitor catalog; cited from earlier work
# B-Raf = tested on: B-Raf; parameters: method as in vendor brief description; conditions: ref vendor brief description; cited from earlier work
# B-RafV600E = tested on: B-RafV600E; parameters: method as in vendor brief description; conditions: ref vendor brief description; cited from earlier work
# c-Raf = tested on: c-Raf; parameters: method as in vendor brief description; conditions: ref vendor brief description; cited from earlier work
# HER2 = conditions: vendor brief description; ref S-inhibitor catalog; cited from earlier work
# EGFR = tested on: EGFR; parameters: method as in S-inhibitor catalog; conditions: vendor brief description; ref S-inhibitor catalog; cited from earlier work
# PKCθ = molecular target: PKCθ; parameters: method as in S-inhibitor catalog; conditions: vendor brief description; ref S-inhibitor catalog; cited from earlier work
# FPTase (H-ras) = molecular target: FPTase (H-ras); parameters: method as in S-inhibitor catalog; conditions: vendor brief description; ref S-inhibitor catalog; cited from earlier work
# FPTase (N-ras) = molecular target: FPTase (N-ras); parameters: method as in S-inhibitor catalog; conditions: vendor brief description; ref S-inhibitor catalog; cited from earlier work
# FPTase (K-ras-4B) = molecular target: FPTase (K-ras-4B); parameters: method as in S-inhibitor catalog; conditions: vendor brief description; ref S-inhibitor catalog; cited from earlier work
# CETP = tested on: CETP; parameters: method as in S-inhibitor catalog; conditions: vendor brief description; ref S-inhibitor catalog; cited from earlier work
# cIAP1 = molecular target: cIAP1; parameters: method as in S-inhibitor catalog; conditions: vendor brief description; ref S-inhibitor catalog; cited from earlier work
# cIAP2 = molecular target: cIAP2; parameters: method as in S-inhibitor catalog; conditions: vendor brief description; ref S-inhibitor catalog; cited from earlier work
# XIAP = molecular target: XIAP; parameters: method as in S-inhibitor catalog; conditions: vendor brief description; ref S-inhibitor catalog; cited from earlier work
# FAK = tested on: FAK; parameters: method as in vendor brief description; conditions: ref vendor brief description; cited from earlier work
# IGF-1R = tested on: IGF-1R; parameters: method as in vendor brief description; conditions: ref vendor brief description; cited from earlier work
# HDAC2 = tested on: HDAC2; parameters: method as in S-inhibitor catalog; conditions: vendor brief description; ref S-inhibitor catalog; cited from earlier work
# [2] = read-out: Parasite inhibition (%) mean, preliminary screen of compound library, mean
smiles,measurement,setting,value
CN(C[C@@H]1COCCO1)S(=O)(=O)Nc1ccc2ccc3ncc(-c4cnn(C)c4)cc3c(=O)c2c1 [MK-2461],pIC50,FGFR1,7.19
same,pIC50,Mer,7.62
same,pIC50,Flt3,7.66
same,viability at 72 h,in vitro,60.3%
same,pIC50,FGFR3,7.30
same,pIC50,FGFR2,7.41
same,pIC50,PDGFRβ,7.66
same,pIC50,Flt1,8.00
same,pIC50,c-Met,8.60
same,pIC50,Ron,8.15
same,inhibition of growth at 5 µM,[1]; [2],79.8%
C[C@H](NC(=O)/C(C#N)=C/c1cccc(Br)n1)c1ccccc1 [WP1066],pIC50,JAK2,5.64
same,pIC50,Stat3,5.61
same,inhibition of growth at 5 µM,[1]; [2],-8.7%
COc1cc(F)c(C(C)C)cc1-c1ccc(C(F)(F)F)cc1CN1C(=O)O[C@H](c2cc(C(F)(F)F)cc(C(F)(F)F)c2)[C@H]1C [Anacetrapib (MK-0859)],pIC50,mutant CETP(C13S),7.93
same,inhibition of growth at 5 µM,[1]; [2],22.1%
O=c1sn(-c2cccc3ccccc23)c(=O)n1Cc1ccccc1 [Tideglusib],pIC50,GSK3,[…]
same,inhibition of growth at 5 µM,[1]; [2],52.8%
CCCCOc1ccc(C(=O)Nc2ccc(F)cc2F)cc1 [VU 0357121],pEC50,mGlu5,7.48
same,inhibition of growth at 5 µM,[1]; [2],0.1%
O=C(/C=C/c1cccnc1)NCCCCC1CCN(C(=O)c2ccccc2)CC1 [APO866 (FK866)],pIC50,NAMPT,[…]
same,inhibition of growth at 5 µM,[1]; [2],10.4%
Cc1ccc([C@@H]2O[C@H](CO)[C@@H](O)[C@H](O)[C@H]2O)cc1Cc1ccc(-c2ccc(F)cc2)s1 [Canagliflozin],pIC50,CHO-hSGLT2,8.36
same,pIC50,CHO-mSGLT2,8.70
same,pIC50,CHO-rSGLT2,8.43
same,inhibition of growth at 5 µM,[1]; [2],0.5%
CCN1C[C@@H](C)n2c(c(O)c3c(=O)n(Cc4ccc(F)c(Cl)c4)nc(C(=O)NC)c32)C1=O [MK-2048],pIC50,INR263K,8.82
same,pIC50,integrase (IN),8.59
same,inhibition of growth at 5 µM,[1]; [2],1%
O=C(O)[C@H](Cc1c[nH]c2ccccc12)N1C(=O)c2ccccc2C1=O [RG108],pIC50,DNA methyltransferase,6.94
same,inhibition of growth at 5 µM,[1]; [2],2.5%
COc1ccc(-c2ccc3ncc4c(c3c2)n(-c2ccc(N3CCNCC3)c(C(F)(F)F)c2)c(=O)n4C)cn1 [NVP-BGT226],inhibition of growth at 5 µM,[1]; [2],6.1%
same,pIC50,PI3K/mTOR,9.00
Cn1cc(C2=C(c3cn(C4CCN(Cc5ccccn5)CC4)c4ccccc34)C(=O)NC2=O)c2ccccc21 [Enzastaurin (LY317615)],pIC50,PKCγ,[…]
same,pIC50,PKCβ,8.22
same,inhibition of growth at 5 µM,"[1]; read-out: Parasite inhibition (%) mean, preliminary screen, mean",11.4%
CC(C)NC[C@@H](C(=O)N1CCN(c2ncnc3c2[C@H](C)C[C@H]3O)CC1)c1ccc(Cl)cc1 [GDC-0068],pIC50,Akt1,[…]
same,inhibition of growth at 5 µM,[1]; [2],35.4%
COc1cc(NC(=O)c2ccc(-c3ccc(Cl)cc3)o2)cc(OC)c1 [A-803467],pIC50,NaV1.8 channel,8.10
same,inhibition of growth at 5 µM,[1]; [2],0.3%
CNC(=O)c1nn(C)c2c1C(C)(C)Cc1cnc(Nc3ccc(N4CCN(C)CC4)cc3)nc1-2 [Milciclib (PHA-848125)],pIC50,cyclin A/CDK2,7.35
same,inhibition of growth at 5 µM,[1]; [2],16.4%
CCC(CC)CC1(C(=O)Nc2ccccc2SC(=O)C(C)C)CCCCC1 [Dalcetrapib (JTT-705)],pIC50,rhCETP,6.70
same,inhibition of growth at 5 µM,[1]; [2],0.4%
CC(C)(C)c1nc(-c2cccc(NS(=O)(=O)c3c(F)cccc3F)c2F)c(-c2ccnc(N)n2)s1 [Dabrafenib (GSK2118436)],pIC50,B-Raf,[…]
same,pIC50,c-Raf,8.30
same,inhibition of growth at 5 µM,[1]; [2],0.8%
CC(C)(O)CC(=O)NCCn1ccc2ncnc(Nc3ccc(Oc4cccc(C(F)(F)F)c4)c(Cl)c3)c21 [TAK-285],pIC50,HER2,7.77
same,inhibition of growth at 5 µM,[1]; [2],-12.2%
CN1CCN(c2nc(C3=C(c4c[nH]c5ccccc45)C(=O)NC3=O)c3ccccc3n2)CC1 [Sotrastaurin (AEB071)],pKi,PKCθ,9.66
same,inhibition of growth at 5 µM,[1]; [2],40.4%
NC(=O)N1CCC(CC(=O)N2CCC([C@H]3c4ncc(Br)cc4CCc4cc(Cl)cc(Br)c43)CC2)CC1 [Lonafarnib (SCH66336)],pIC50,FPTase (H-ras),8.72
same,pIC50,FPTase (N-ras),8.55
same,pIC50,FPTase (K-ras-4B),8.28
same,inhibition of growth at 5 µM,[1]; [2],0.4%
CCOC(=O)N1c2ccc(C(F)(F)F)cc2[C@H](N(Cc2cc(C(F)(F)F)cc(C(F)(F)F)c2)C(=O)OC)C[C@H]1CC [Torcetrapib (CP-529414)],pIC50,CETP,7.43
same,inhibition of growth at 5 µM,[1]; [2],22.1%
CN[C@@H](C)C(=O)N[C@H]1CN(C(=O)CC(C)C)CC[C@H]2CC[C@@H](C(=O)NC(c3ccccc3)c3ccccc3)N2C1=O [AT-406],pKi,cIAP1,8.72
same,pKi,cIAP2,8.29
same,pKi,XIAP,7.18
same,inhibition of growth at 5 µM,[1]; [2],33.5%
CNC(=O)c1ccccc1Nc1nc(Nc2ccc(N3CCOCC3)cc2OC)ncc1Cl [NVP-TAE226],pIC50,FAK,8.26
same,inhibition of growth at 5 µM,[1]; [2],66.8%
COc1ccc(-c2nc(N3CCOCC3)c3sc(CN(C)c4ncc(C(=O)NO)cn4)cc3n2)cn1 [PI3K/HDAC Inhibitor I],viability at 72 h,in vitro,72.1%
same,pIC50,HDAC2,8.30
same,inhibition of growth at 5 µM,[1]; [2],78.4%
